Laboratory results published in PubChem BioAssay (NCI).
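Following 48 hours of exposure in 96-well plates, responses at five concentrations were used to interpolate endpoints linearly. Here, GI50 denotes the concentration required for 50% inhibition of growth. Definition used: TGI = concentration required for complete inhibition of growth.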

Legend:
Experiment in all cases: DTP human tumour cell line panel, 48 h
HOP-92 NSCLC = tested on: HOP-92 NSCLC
SN12C renal = tested on: SN12C renal
RPMI-8226 leukemia = tested on: RPMI-8226 leukemia
SK-MEL-5 melanoma = tested on: SK-MEL-5 melanoma
K-562 leukemia = tested on: K-562 leukemia
MDA-MB-231 breast = tested on: MDA-MB-231 breast
OVCAR-4 ovarian = tested on: OVCAR-4 ovarian
IGROV1 ovarian = tested on: IGROV1 ovarian
A549 NSCLC = tested on: A549 NSCLC
U251 CNS = tested on: U251 CNS

Row | SMILES | GI50 (HOP-92 NSCLC) | TGI (HOP-92 NSCLC) | GI50 (SN12C renal) | TGI (SN12C renal) | GI50 (RPMI-8226 leukemia) | TGI (RPMI-8226 leukemia) | GI50 (SK-MEL-5 melanoma) | TGI (SK-MEL-5 melanoma) | GI50 (K-562 leukemia) | TGI (K-562 leukemia) | GI50 (MDA-MB-231 breast) | TGI (MDA-MB-231 breast) | GI50 (OVCAR-4 ovarian) | TGI (OVCAR-4 ovarian) | GI50 (IGROV1 ovarian) | TGI (IGROV1 ovarian) | GI50 (A549 NSCLC) | TGI (A549 NSCLC) | GI50 (U251 CNS) | TGI (U251 CNS)
1 | CCSc1sc(-c2ccc(C)cc2)nc1[P+](c1ccccc1)(c1ccccc1)c1ccccc1 | 0.174 µM | 0.593 µM | 0.294 µM | 1.11 µM | 0.13 µM | 0.477 µM | 0.174 µM | 0.321 µM | 0.195 µM | 1.44 µM | 0.259 µM | 1.14 µM | 0.275 µM | 1.05 µM |  |  |  |  |  | 
2 | CCCCCCCC(=O)SCC/C=C/[C@@H]1CC(=O)NCc2cccc(n2)CN(Cc2ccc(Cl)cc2)CC(=O)N[C@@H](C(C)C)C(=O)O1 | 8.76 µM | 41.8 µM | 22.8 µM | > 100 µM | 46.4 µM | > 100 µM | 5.26 µM | 17.6 µM | 11 µM | > 100 µM | 11.7 µM | 68.8 µM | 21.7 µM | > 100 µM | 7.02 µM | > 100 µM | 12.1 µM | 97.7 µM | 12.6 µM | 35.8 µM
3 | COc1ccc(OC)c(-c2cc(-c3ccc(Cl)cc3)nn2-c2ccc(S(N)(=O)=O)cc2)c1 | 19.2 µM | 62.5 µM | 14.5 µM | 28.2 µM | 1.72 µM | 3.72 µM | 14.5 µM | 35.4 µM | 2.07 µM | 4.87 µM | 6.05 µM | 19 µM |  |  | 21.6 µM | > 100 µM | 7.84 µM | 51.9 µM |  | 
4 | NC(=O)c1ncn(C2CCC(CP(=O)(O)O)C2)c1N (stereo unspecified) |  | > 100 µM |  | > 100 µM |  | > 100 µM |  | > 100 µM |  |  |  | > 100 µM |  | > 100 µM |  | > 100 µM |  | > 100 µM |  | > 100 µM
5 | COC(=O)c1ccc2c(c1)[n+](=O)c(C(C)=O)c(C(F)(F)F)n2[O-] | 1.48 µM | 3.14 µM |  |  | 2.23 µM | 6.34 µM | 1.69 µM | 3.06 µM | 2.31 µM | 7.7 µM | 1.98 µM | 3.88 µM |  |  | 1.75 µM | 3.39 µM | 1.96 µM | 3.7 µM | 1.8 µM | 3.25 µM
6 | NS(=O)(=O)OC[C@H]1O[C@@H](n2cnc3c(N[C@H]4CCc5ccccc54)ncnc32)[C@H](O)[C@@H]1O | 0.475 µM | 0.799 µM | 0.231 µM | 1.3 µM | 3.36 µM | 28.1 µM | 0.0369 µM | 0.151 µM | 0.0369 µM | > 100 µM | 0.47 µM | 2.92 µM | 0.243 µM | 0.626 µM | 0.174 µM | 1 µM | 0.871 µM | 3 µM | 0.0353 µM | 0.121 µM
7 | COc1ccc(/C(C#N)=C/c2nc3c(N4CCOCC4)nc(Cl)nc3n2C)cc1OC | 0.246 µM | 2.94 µM | < 0.01 µM | 1.48 µM | < 0.01 µM | 0.315 µM | < 0.0108 µM | 0.0347 µM | < 0.01 µM | 11.4 µM | < 0.0133 µM | 2.46 µM | < 0.0105 µM | 1.93 µM | < 0.01 µM | 1.27 µM | < 0.01 µM | 1.92 µM | < 0.01 µM | 1.51 µM
8 | Cn1c(=O)c2[nH]c(Nc3ccccc3)nc2n(C)c1=O |  | > 10 µM |  | > 10 µM |  | > 10 µM |  | > 10 µM |  | > 10 µM |  | > 10 µM |  | > 10 µM |  | > 10 µM |  | > 10 µM |  | 
9 | COc1ccc(C2CC(c3cccc(Nc4ccnc5cc(Cl)ccc45)c3)=NN2c2ccccc2)cc1 (stereo unspecified) | 3.93 µM | 47.6 µM | 7.19 µM | > 100 µM | 1.27 µM | 22.8 µM | 1.46 µM | 4.76 µM | 0.492 µM | 32.3 µM | 1.31 µM | 29.2 µM |  |  | 11.6 µM | > 100 µM | 2 µM | > 100 µM |  | 
10 | N#CC1=C(N)NC(=S)NC1c1ccc(-c2ccc(-c3nc4ccccc4s3)cc2)o1 (stereo unspecified) | > 50 µM | > 50 µM | > 50 µM | > 50 µM | 32.8 µM | > 50 µM | 14.6 µM | 39.4 µM | 9.98 µM | 22 µM | 16.3 µM | > 50 µM |  |  | 32.1 µM | > 50 µM | 31.6 µM | > 50 µM | 11.8 µM | 32.2 µM
11 | C=C1c2c(C)nn(-c3ccccc3)c2N(C)C23C[C@@H]1C1(C)c4c(C)nn(-c5ccccc5)c4N(C)C(C)(C[C@H]12)C3 (stereo partly specified) | 0.549 µM | 5.53 µM | 9.92 µM | > 100 µM |  |  |  |  |  |  | 4.55 µM | 39.6 µM | 4.49 µM | > 100 µM | 11.9 µM | > 100 µM | 2.37 µM | > 100 µM | 4.44 µM | 31.6 µM
12 | Nc1nc(Cl)cc2c1ncn2C1OC(CO)C(O)C1O (stereo unspecified) | > 100 µM | > 100 µM |  |  | > 100 µM | > 100 µM | > 100 µM | > 100 µM | > 100 µM | > 100 µM | 52.3 µM | > 100 µM | > 100 µM | > 100 µM | > 100 µM | > 100 µM | > 100 µM | > 100 µM | > 100 µM | > 100 µM
13 | Cc1ccc(NC(=O)C(=O)C2C(=O)C3=C(CC2(C)C)NC2C=CC=CC2S3)c(C)c1 (stereo unspecified) |  | > 100 µM |  | > 100 µM |  |  |  | > 100 µM |  |  |  | > 100 µM |  | > 100 µM |  | > 100 µM |  | > 100 µM |  | > 100 µM
14 | COC(=O)C1=C(O)C(C(=O)OC)[C@@]2(O)[C@@H](C(=O)OC)C(c3ccc(OC(=O)C(Cc4ccccc4)NC(C)=O)cc3)C[C@@H]1[C@@H]2C(=O)OC (stereo partly specified) | 21.4 µM | 58.8 µM | 22.6 µM | 62.1 µM | 20.6 µM | 71.4 µM | 18 µM | 39.3 µM | 19.1 µM | > 100 µM | 21 µM | 58.8 µM |  |  | 45.7 µM | > 100 µM | 20.6 µM | 57.5 µM | 15.9 µM | 32.8 µM
